Measured values: ChEMBL document CHEMBL3046040, “Synthesis, cytostatic and anti-viral activity evaluation of the novel acyclic nucleoside analogues containing a sterically constrained (Z)-4-amino-2-butenyl moiety” (Med Chem Res, 2011)
Calls of active or inactive are those of the source. The rule behind the calls is not given here.

Test system: Human immunodeficiency virus 1
Assay: Antiviral activity against Human immunodeficiency virus 1 IIIB infected CEM cells assessed as inhibition of virus-induced giant cell formation after 4 days by microscopic analysis
Type: functional, organism-based
Details: CCRF-CEM, 96 h

Compound	EC50 [µM]
NC/C=C\Cn1cnc2c(=O)[nH]cnc21	≥ 100
Cc1cn(C/C=C\CN)c(=O)[nH]c1=O	29
NC/C=C\Cn1cnc2c(Cl)nc(N)nc21	≥ 100

Test system: WI-38
Assay: Antiproliferative activity against Homo sapiens (human) WI38 cells by MTT assay
Type: cell-based
Details: not given

Compound	IC50 [µM]
NC/C=C\Cn1cnc2c(=O)[nH]cnc21	> 100
Cc1cn(C/C=C\CN)c(=O)[nH]c1=O	54.2
NC/C=C\Cn1cnc2c(Cl)nc(N)nc21	> 100

Test system: SW-620
Assay: Antiproliferative activity against Homo sapiens (human) SW620 cells by MTT assay
Type: functional, cell-based
Details: Homo sapiens, SW-620

Compound	IC50 [µM]
NC/C=C\Cn1cnc2c(=O)[nH]cnc21	> 100
Cc1cn(C/C=C\CN)c(=O)[nH]c1=O	54.4
NC/C=C\Cn1cnc2c(Cl)nc(N)nc21	> 100

Test system: MIA PaCa-2
Assay: Antiproliferative activity against Homo sapiens (human) MIAPaCa2 cells by MTT assay
Type: functional, cell-based
Details: not given

Compound	IC50 [µM]
NC/C=C\Cn1cnc2c(=O)[nH]cnc21	> 100
Cc1cn(C/C=C\CN)c(=O)[nH]c1=O	93.3
NC/C=C\Cn1cnc2c(Cl)nc(N)nc21	> 100

Test system: MCF7
Assay: Antiproliferative activity against Homo sapiens (human) MCF7 cells by MTT assay
Type: functional, cell-based
Details: not given

Compound	IC50 [µM]
NC/C=C\Cn1cnc2c(=O)[nH]cnc21	> 100
Cc1cn(C/C=C\CN)c(=O)[nH]c1=O	49.2
NC/C=C\Cn1cnc2c(Cl)nc(N)nc21	> 100

Test system: HepG2
Assay: Antiproliferative activity against Homo sapiens (human) HepG2 cells by MTT assay
Type: functional, cell-based
Details: not given

Compound	IC50 [µM]
NC/C=C\Cn1cnc2c(=O)[nH]cnc21	> 100
Cc1cn(C/C=C\CN)c(=O)[nH]c1=O	> 100
NC/C=C\Cn1cnc2c(Cl)nc(N)nc21	> 100

Test system: HeLa
Assay: Antiproliferative activity against Homo sapiens (human) HeLa cells by MTT assay
Type: functional, cell-based
Details: not given

Compound	IC50 [µM]	Activity
NC/C=C\Cn1cnc2c(=O)[nH]cnc21	69.1	
Cc1cn(C/C=C\CN)c(=O)[nH]c1=O	61.6	
NC/C=C\Cn1cnc2c(Cl)nc(N)nc21	54	Dose-dependent effect

Test system: CCRF-CEM
Assay: Cytostatic activity against Homo sapiens (human) CEM cells after 72 hr by Coulter counting analysis
Type: functional, cell-based
Details: not given

Compound	IC50 [µM]
NC/C=C\Cn1cnc2c(=O)[nH]cnc21	> 500
Cc1cn(C/C=C\CN)c(=O)[nH]c1=O	51
NC/C=C\Cn1cnc2c(Cl)nc(N)nc21	> 500

Test system: MOLT-4
Assay: Cytostatic activity against Homo sapiens (human) Molt4/C8 cells after 72 hr by Coulter counting analysis
Type: functional, cell-based
Details: MOLT-4, 72 h

Compound	IC50 [µM]
NC/C=C\Cn1cnc2c(=O)[nH]cnc21	> 500
Cc1cn(C/C=C\CN)c(=O)[nH]c1=O	44
NC/C=C\Cn1cnc2c(Cl)nc(N)nc21	> 500

Test system: L1210
Assay: Cytostatic activity against Mus musculus (mouse) L1210 cells after 48 hr by Coulter counting analysis
Type: functional, cell-based
Details: Mus musculus, L1210, 48 h

Compound	IC50 [µM]
NC/C=C\Cn1cnc2c(=O)[nH]cnc21	114
Cc1cn(C/C=C\CN)c(=O)[nH]c1=O	43
NC/C=C\Cn1cnc2c(Cl)nc(N)nc21	> 500

Test system: Influenza A virus H3N2
Assay: Antiviral activity against Influenza A virus H3N2 infected MDCK cells assessed as inhibition of virus-induced cytopathic effect
Type: functional, organism-based
Details: not given

Compound	Activity
NC/C=C\Cn1cnc2c(=O)[nH]cnc21	inactive
Cc1cn(C/C=C\CN)c(=O)[nH]c1=O	inactive
NC/C=C\Cn1cnc2c(Cl)nc(N)nc21	inactive

Test system: Influenza B virus
Assay: Antiviral activity against Influenza B virus infected MDCK cells assessed as inhibition of virus-induced cytopathic effect
Type: functional, organism-based
Details: not given

Compound	Activity
NC/C=C\Cn1cnc2c(=O)[nH]cnc21	inactive
Cc1cn(C/C=C\CN)c(=O)[nH]c1=O	inactive
NC/C=C\Cn1cnc2c(Cl)nc(N)nc21	inactive

Test system: Influenza A virus
Assay: Antiviral activity against Unidentified Influenza A virus ([…]) infected MDCK cells assessed as inhibition of virus-induced cytopathic effect
Type: functional, organism-based
Details: Influenza A virus (H1N1)

Compound	Activity
NC/C=C\Cn1cnc2c(=O)[nH]cnc21	inactive
Cc1cn(C/C=C\CN)c(=O)[nH]c1=O	inactive
NC/C=C\Cn1cnc2c(Cl)nc(N)nc21	inactive

Test system: Respiratory syncytial virus
Assay: Antiviral activity against Respiratory syncytial virus infected HeLa cells assessed as inhibition of virus-induced cytopathic effect
Type: functional, organism-based
Details: not given

Compound	Activity
NC/C=C\Cn1cnc2c(=O)[nH]cnc21	inactive
Cc1cn(C/C=C\CN)c(=O)[nH]c1=O	inactive
NC/C=C\Cn1cnc2c(Cl)nc(N)nc21	inactive

Test system: Coxsackievirus B4
Assay: Antiviral activity against Human coxsackievirus B4 infected HeLa cells assessed as inhibition of virus-induced cytopathic effect
Type: functional, organism-based
Details: not given

Compound	Activity
NC/C=C\Cn1cnc2c(=O)[nH]cnc21	inactive
Cc1cn(C/C=C\CN)c(=O)[nH]c1=O	inactive
NC/C=C\Cn1cnc2c(Cl)nc(N)nc21	inactive

Test system: Vesicular stomatitis virus
Assay: Antiviral activity against Vesicular stomatitis virus infected HeLa cells assessed as inhibition of virus-induced cytopathic effect
Type: functional, organism-based
Details: not given

Compound	Activity
NC/C=C\Cn1cnc2c(=O)[nH]cnc21	inactive
Cc1cn(C/C=C\CN)c(=O)[nH]c1=O	inactive
NC/C=C\Cn1cnc2c(Cl)nc(N)nc21	inactive

Test system: Punta Toro virus
Assay: Antiviral activity against Punta Toro virus infected Vero cells assessed as inhibition of virus-induced cytopathic effect
Type: functional, organism-based
Details: not given

Compound	Activity
NC/C=C\Cn1cnc2c(=O)[nH]cnc21	inactive
Cc1cn(C/C=C\CN)c(=O)[nH]c1=O	inactive
NC/C=C\Cn1cnc2c(Cl)nc(N)nc21	inactive

Test system: Coxsackievirus B4
Assay: Antiviral activity against Human coxsackievirus B4 infected Vero cells assessed as inhibition of virus-induced cytopathic effect
Type: functional, organism-based
Details: not given

Compound	Activity
NC/C=C\Cn1cnc2c(=O)[nH]cnc21	inactive
Cc1cn(C/C=C\CN)c(=O)[nH]c1=O	inactive
NC/C=C\Cn1cnc2c(Cl)nc(N)nc21	inactive

Test system: Sindbis virus
Assay: Antiviral activity against Sindbis virus infected Vero cells assessed as inhibition of virus-induced cytopathic effect
Type: functional, organism-based
Details: not given

Compound	Activity
NC/C=C\Cn1cnc2c(=O)[nH]cnc21	inactive
Cc1cn(C/C=C\CN)c(=O)[nH]c1=O	inactive
NC/C=C\Cn1cnc2c(Cl)nc(N)nc21	inactive

Test system: Reovirus sp.
Assay: Antiviral activity against Mammalian orthoreovirus 1 infected Vero cells assessed as inhibition of virus-induced cytopathic effect
Type: functional, organism-based
Details: not given

Compound	Activity
NC/C=C\Cn1cnc2c(=O)[nH]cnc21	inactive
Cc1cn(C/C=C\CN)c(=O)[nH]c1=O	inactive
NC/C=C\Cn1cnc2c(Cl)nc(N)nc21	inactive

Test system: Human respirovirus 3
Assay: Antiviral activity against Human parainfluenza virus 3 infected Vero cells assessed as inhibition of virus-induced cytopathic effect
Type: functional, organism-based
Details: not given

Compound	Activity
NC/C=C\Cn1cnc2c(=O)[nH]cnc21	inactive
Cc1cn(C/C=C\CN)c(=O)[nH]c1=O	inactive
NC/C=C\Cn1cnc2c(Cl)nc(N)nc21	inactive

Test system: Human alphaherpesvirus 2
Assay: Antiviral activity against Human herpesvirus 2 strain G infected HEL cells assessed as inhibition of virus-induced cytopathic effect
Type: functional, organism-based
Details: not given

Compound	Activity
NC/C=C\Cn1cnc2c(=O)[nH]cnc21	inactive
Cc1cn(C/C=C\CN)c(=O)[nH]c1=O	inactive
NC/C=C\Cn1cnc2c(Cl)nc(N)nc21	inactive

Test system: Human alphaherpesvirus 1
Assay: Antiviral activity against Human herpesvirus 1 strain KOS infected in HEL cells assessed as inhibition of virus-induced cytopathic effect
Type: functional, organism-based
Details: not given

Compound	Activity
NC/C=C\Cn1cnc2c(=O)[nH]cnc21	inactive
Cc1cn(C/C=C\CN)c(=O)[nH]c1=O	inactive
NC/C=C\Cn1cnc2c(Cl)nc(N)nc21	inactive

Target: Human immunodeficiency virus type 1 reverse transcriptase (Human immunodeficiency virus 1) (UniProt Q72547)
Assay: Inhibition of Human immunodeficiency virus 1 recombinant reverse transcriptase at 500 uM
Details: not given

Compound	inhibition
Cc1cn(C/C=C\CN)c(=O)[nH]c1=O	inactive

Test system: Human immunodeficiency virus 2
Assay: Antiviral activity against Human immunodeficiency virus type 2 (ISOLATE ROD) infected CEM cells assessed as inhibition of virus-induced giant cell formation after 4 days by microscopic analysis
Type: functional, organism-based
Details: Human immunodeficiency virus 2, ISOLATE ROD, CCRF-CEM, 96 h

Compound	EC50 [µM]
NC/C=C\Cn1cnc2c(=O)[nH]cnc21	≥ 100
Cc1cn(C/C=C\CN)c(=O)[nH]c1=O	41
NC/C=C\Cn1cnc2c(Cl)nc(N)nc21	≥ 100
